{"source": "patent US20140045943A1", "about": "“Hydroxamic Acid Derivatives, Preparation and Therapeutic Uses Thereof” (Naurex, Inc., priority 2008, published 2014)", "key": {"Male Sprague Dawley rats": {"tested_on": "Male Sprague Dawley rats", "test": "Trimethyltin (TMT) model, KCl-evoked glutamate release from hippocampal slices", "format": "in vivo, rat", "conditions": "AK-10 25 mg/kg, sc daily for 17 days, starting 24 hours after TMT 8 mg/kg, FIG. 3", "description": "Male Sprague Dawley rats (200 g; Harlan) were administered […], sc trimethyltin (TMT) and housed individually as a result of the aggressive behavior induced by the neurotoxicant. The day following the TMT treatment, rats were started on a once daily dosing for 17 days with vehicle or AK-10 (25 mg/kg, sc) in PBS. Rats were decapitated on day 19 and the hippocampi isolated and placed in chilled Hanks Balanced Salt Solution containing 20 mM HEPES (HBSS-HEPES, 4° C.) for release experiments.\nChilled tissues were cut into 300 μm slices. A single slice was incubated in 2 ml of HBSS-HEPES in 12-well culture plates at 37° C. for 30 min. The media was discarded and the slice incubated for 2-10 min periods, each with fresh media. Next, the slices were incubated for 5 min after which the media was isolated for amino acid analyses (Pre-sample), followed by a 5 min incubation in which 50 mM KCl was added to evoke neurotransmitter release from the slices (KCl sample). Next, a final 5 min incubation in HBSS-HEPES was collected (Post sample). […]\nFor the GC-MS analysis of glutamate, an Agilent bench-top GC-MSD (HP6890/MSD5973) system was autotuned (41, 267 and 599) under PCI conditions with methane as the reagent gas. […] The [MH]+ ions that were monitored were 332 and 338 for endogenous GABA and its internal standard, and 490 and 495 for endogenous glutamate and its internal standard. […]"}, "Methemoglobin": {"tested_on": "Methemoglobin", "test": "Methemoglobinemia in the rat", "format": "in vivo", "conditions": "for Methemoglobin (%): 50 mg/kg, sc, 1 hr", "source_text": "Hydroxylamines are efficacious aldehyde sequestering agents but also may induce methemaglobinemia. Methemoglobinemia is the condition caused by the oxidation of hemoglobin into methemoglobin or a deficiency in the ability of the body to reduce methemoglobin to hemoglobin.\nTable 2 sets forth a comparison of the percentage of hemoglobin that is in the form of methemoglobin under control conditions, in the presence of aldehyde sequestering agent, N-enzylhydroxylamine (NBHA) and the hydroxamic acid, AK-10."}, "[1]": {"tested_on": "rat retinal cell line, E1A-NR.3", "test": "3-aminopropanal neurotoxicity assay, LDH release, retinal cell cultures", "format": "cell-based", "conditions": "for % Neuroprotection (600 μM): compound 600 μM, 24-hour incubation with 400 μM 3-aminopropanal in retinal ganglion cells", "description": "The rat retinal cell line, E1A-NR.3, was grown in DMEM, containing 10% FBS, in 75 cm2 flasks. […] Media was collected and assayed for LDH using the Roche assay kit. Rabbit muscle LDH was used for the standard curve. Drug treatments of aldehyde sequestering agents were as co-treatments or delayed administration of about 0.5 to about 3 hours. All drugs were dissolved in PBS."}, "[2]": {"tested_on": "rat retinal cell line, E1A-NR.3", "conditions": "co-treatments and delayed addition; reference (1); cited from earlier work"}}}
{"smiles": "CC(C)CC(N)C(=O)NO", "note": "(centres unmarked) [AK-10, 2-amino-N-hydroxy-4-methylpentamide]", "values": [{"measurement": "protection in the rat trimethyltin model of CA3 glutamatergic cell death (KCl-evoked glutamate release as index of CA3 neuronal loss)", "setting": "Male Sprague Dawley rats", "result": "prevention of TMT neurotoxicity"}, {"measurement": "Methemoglobin (%)", "setting": "Methemoglobin", "result": "2.2 ± 0.3", "unit": "%"}, {"measurement": "methemoglobinemia", "setting": "Methemoglobin; N-benzylhydroxylamine as positive control", "result": "lack of methemoglobinemia"}, {"measurement": "delay of treatment after 3-AP still giving reduced 24-hour LDH levels", "setting": "[1]; 300 μM AK-10, delayed co-treatment 0.5 to 3 hours, 400 μM 3-AP, FIG. 2", "result": "at least 3 hours"}, {"measurement": "activity in the model of aldehyde-induced cell death", "setting": "[1]; Table 1, FIG. 1, FIG. 2", "result": "most efficacious analog"}, {"measurement": "24-hour LDH level versus cells exposed to 3-AP alone", "setting": "[1]; co-treatment, 150 μM, 300 μM and 600 μM AK-10 with 400 μM 3-AP, FIG. 1", "result": "significantly reduce"}, {"measurement": "% Neuroprotection (600 μM)", "setting": "[1]", "result": 100, "unit": "%"}]}
{"smiles": "CC(=O)NC(CC(C)C)C(=O)NO", "note": "(centres unmarked) [AK-12, 2-acetoamido-N-hydroxy-4-methylpentamide]", "values": [{"measurement": "melting point", "result": "47 to 49", "unit": "°C"}, {"measurement": "% Neuroprotection (600 μM)", "setting": "[1]", "result": 10, "unit": "%"}]}
{"smiles": "CCCC(N)C(=O)NO", "note": "(centres unmarked) [AK-25, 2-amino-N-hydroxypentamide]", "values": [{"measurement": "% Neuroprotection (600 μM)", "setting": "[1]", "result": 28, "unit": "%"}]}
{"smiles": "CC(C)C(N)CC(=O)NO", "note": "(centres unmarked) [AK-26, 3-amino-N-hydroxy-4-methylpentamide]", "values": [{"measurement": "% Neuroprotection (600 μM)", "setting": "[1]", "result": 58, "unit": "%"}]}
{"smiles": "CC(N)C(=O)NO", "note": "(centres unmarked) [AK-27, 2-amino-N-hydroxypropanamide]", "values": [{"measurement": "% Neuroprotection (600 μM)", "setting": "[1]", "result": 6, "unit": "%"}]}
{"smiles": "CCC(N)C(=O)NO", "note": "(centres unmarked) [AK-28, 2-amino-N-hydroxybutanamide]", "values": [{"measurement": "% Neuroprotection (600 μM)", "setting": "[1]", "result": 39, "unit": "%"}]}
{"smiles": "CCC(C)C(N)C(=O)NO", "note": "(centres unmarked) [AK-29, 2-amino-N-hydroxy-3-methylpentamide]", "values": [{"measurement": "% Neuroprotection (600 μM)", "setting": "[1]", "result": 4, "unit": "%"}]}
{"smiles": "CC(S)C(=O)NCC(=O)O", "note": "(centres unmarked) [N-(2-mercaptopropionyl)-glycine]", "values": [{"measurement": "protection of retinal cells from 3-aminopropanal toxicity", "setting": "[2]", "result": "active"}]}
{"smiles": "ONCc1ccccc1", "note": "[NBHA, N-benzylhydroxylamine, reference compound]", "values": [{"measurement": "Methemoglobin (%)", "setting": "Methemoglobin", "result": "22.6 ± 3.1", "unit": "%"}, {"measurement": "protection of retinal cells from 3-aminopropanal toxicity", "setting": "[2]", "result": "protected retinal cells"}]}
{"smiles": "O=C1O[C@H]([C@@H](O)CO)C(O)=C1O", "note": "[ascorbic acid, reference compound]", "values": [{"measurement": "protection in the rat trimethyltin model of CA3 glutamatergic cell death (KCl-evoked glutamate release as index of CA3 neuronal loss)", "setting": "Male Sprague Dawley rats", "result": "not"}]}
{"smiles": "ONC1CCCCC1", "note": "[cyclohexylhydroxylamine]", "values": [{"measurement": "protection of retinal cells from 3-aminopropanal toxicity", "setting": "[2]", "result": "protected retinal cells"}]}
{"smiles": "CC(C)(C)NO", "note": "[t-butylhydroxylamine]", "values": [{"measurement": "protection of retinal cells from 3-aminopropanal toxicity", "setting": "[2]", "result": "protected retinal cells"}]}
